Experimental data published in ChEMBL document CHEMBL3885861, “Open TG-GATES”.

Species on record: Rattus norvegicus
Experiment: Open TG-GATES - Regimen: Daily Repeat
Assay type: toxicity, organism-based, Sprague-Dawley
Set-up: regimen Daily Repeat, gender Male, age 6 weeks
Details: in vivo, po, route gavage; for TP / gamma-GTP / ALP / ALT / AST / BUN / CRE / DBIL / GLC / IP / K / LDH / Na / PL / RALB / TBIL / TC / TG: tissue Plasma; for APTT / Bas / Eos / Fbg / Hb / Ht / Lym / MCH / MCHC / MCV / Mono / Neu / PT / Plat / RBC / Ret / WBC: tissue Blood; for KIDNEY_L / KIDNEY_R / KIDNEY_TOTAL: tissue Kidney; for LIVER: tissue Liver
[1] = 0 mg/kg, […], dose level Control, time 28 day
[2] = 45 mg/kg, 72 h, dose level Low, time 3 day
[3] = 45 mg/kg, […], dose level Low, time 7 day
[4] = 45 mg/kg, […], dose level Low, time 14 day
[5] = 45 mg/kg, […], dose level Low, time 28 day

CC(CCc1ccccc1)NCC(O)c1ccc(O)c(C(N)=O)c1 (centres undefined) [LABETALOL]
TP [1]: 6.3 g/dL
gamma-GTP [1]: 1 IU/L
TERMINAL_BW [2]: 254.7 g
APTT [2]: 16 s
Bas [2]: 0%
Eos [2]: 0.8%
Fbg [2]: 279.4 mg/dL
Hb [2]: 13.6 g/dL
Ht [2]: 40.1%
Lym [2]: 77%
MCH [2]: 21.7 pg
MCHC [2]: 33.9%
MCV [2]: 64.1 fL
Mono [2]: 3%
Neu [2]: 18.6%
PT [2]: 13 s
Plat [2]: 116.6 x10_4/uL
RBC [2]: 626.8 x10_4/ul
Ret [2]: 6.8%
WBC [2]: 105.9 x10_2/uL
KIDNEY_L [2]: 1.1 g
KIDNEY_R [2]: 1.1 g
KIDNEY_TOTAL [2]: 2.2 g
LIVER [2]: 11.6 g
ALP [2]: 1517 IU/L
ALT [2]: 42.4 IU/L
AST [2]: 69.8 IU/L
BUN [2]: 15 mg/dL
CRE [2]: 0.2 mg/dL
DBIL [2]: 0.014 mg/dL
GLC [2]: 186.2 mg/dL
IP [2]: 7.4 mg/dL
K [2]: 4 meq/L
LDH [2]: 64.2 IU/L
Na [2]: 143.4 meq/L
PL [2]: 160.8 mg/dL
RALB [2]: 2.7 g/dL
TBIL [2]: 0.026 mg/dL
TC [2]: 87.6 mg/dL
TG [2]: 116.6 mg/dL
TP [2]: 5.9 g/dL
gamma-GTP [2]: 1.2 IU/L
TERMINAL_BW [3]: 288.7 g
TERMINAL_BW [4]: 350.6 g
TERMINAL_BW [5]: 411.6 g
APTT [3]: 17.4 s
Bas [3]: 0%
Eos [3]: 1%
Fbg [3]: 315.6 mg/dL
Hb [3]: 14.1 g/dL
Ht [3]: 40.9%
Lym [3]: 73%
MCH [3]: 21.4 pg
MCHC [3]: 34.6%
MCV [3]: 61.9 fL
Mono [3]: 3.4%
Neu [3]: 22.2%
PT [3]: 12.8 s
Plat [3]: 114.7 x10_4/uL
RBC [3]: 661 x10_4/ul
Ret [3]: 5.1%
WBC [3]: 95.2 x10_2/uL
APTT [4]: 17.7 s
Bas [4]: 0%
Eos [4]: 0.8%
Fbg [4]: 291.6 mg/dL
Hb [4]: 14.5 g/dL
Ht [4]: 41.8%
Lym [4]: 76.4%
MCH [4]: 21.4 pg
MCHC [4]: 34.7%
MCV [4]: 61.5 fL
Mono [4]: 2.8%
Neu [4]: 19.6%
PT [4]: 12.9 s
Plat [4]: 104.8 x10_4/uL
RBC [4]: 679.2 x10_4/ul
Ret [4]: 4.4%
WBC [4]: 86.7 x10_2/uL
APTT [5]: 17.8 s
Bas [5]: 0.4%
Eos [5]: 1.4%
Fbg [5]: 276.4 mg/dL
Hb [5]: 15.5 g/dL
Ht [5]: 44.6%
Lym [5]: 75.6%
MCH [5]: 19.7 pg
MCHC [5]: 34.6%
MCV [5]: 56.9 fL
Mono [5]: 2.6%
Neu [5]: 19.4%
PT [5]: 13.1 s
Plat [5]: 101.1 x10_4/uL
RBC [5]: 785.2 x10_4/ul
Ret [5]: 2.4%
WBC [5]: 108 x10_2/uL
KIDNEY_L [3]: 1.1 g
KIDNEY_R [3]: 1.1 g
KIDNEY_TOTAL [3]: 2.2 g
KIDNEY_L [4]: 1.3 g
KIDNEY_R [4]: 1.3 g
KIDNEY_TOTAL [4]: 2.6 g
KIDNEY_L [5]: 1.4 g
KIDNEY_R [5]: 1.4 g
KIDNEY_TOTAL [5]: 2.8 g
LIVER [3]: 12.4 g
LIVER [4]: 12.9 g
LIVER [5]: 15.8 g
ALP [3]: 1674.4 IU/L
ALT [3]: 45 IU/L
AST [3]: 71.4 IU/L
BUN [3]: 15.4 mg/dL
CRE [3]: 0.2 mg/dL
DBIL [3]: 0.016 mg/dL
GLC [3]: 192.2 mg/dL
K [3]: 3.7 meq/L
LDH [3]: 59.2 IU/L
Na [3]: 143.2 meq/L
PL [3]: 163.2 mg/dL
RALB [3]: 2.7 g/dL
TBIL [3]: 0.024 mg/dL
TC [3]: 89.6 mg/dL
TG [3]: 117.2 mg/dL
TP [3]: 5.9 g/dL
gamma-GTP [3]: 1.2 IU/L
ALP [4]: 1374 IU/L
ALT [4]: 46.4 IU/L
AST [4]: 71.8 IU/L
BUN [4]: 17 mg/dL
CRE [4]: 0.2 mg/dL
DBIL [4]: 0.014 mg/dL
GLC [4]: 191.8 mg/dL
IP [4]: 8 mg/dL
K [4]: 3.8 meq/L
LDH [4]: 57.2 IU/L
Na [4]: 144.4 meq/L
PL [4]: 155.4 mg/dL
RALB [4]: 2.8 g/dL
TBIL [4]: 0.028 mg/dL
TC [4]: 76.8 mg/dL
TG [4]: 131.2 mg/dL
TP [4]: 6.1 g/dL
gamma-GTP [4]: 1.2 IU/L
ALP [5]: 1004.4 IU/L
ALT [5]: 48.8 IU/L
AST [5]: 70.4 IU/L
BUN [5]: 16.6 mg/dL
CRE [5]: 0.2 mg/dL
DBIL [5]: 0.018 mg/dL
GLC [5]: 179.2 mg/dL
IP [5]: 6.8 mg/dL
K [5]: 3.7 meq/L
LDH [5]: 70.6 IU/L
Na [5]: 143.2 meq/L
PL [5]: 151.4 mg/dL
RALB [5]: 2.9 g/dL
TBIL [5]: 0.038 mg/dL
TC [5]: 79.2 mg/dL
TG [5]: 118.2 mg/dL
